In the supplement of paper PMC10307832:

Legend:
Assay in all cases: relative viability (nuclei count vs DMSO), 5 days (fraction); higher = more cells survive
COR-L 105 = tested on: COR-L 105
Summary of the method: (§1)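 Relative viability divides the nuclei count in treated wells by that in vehicle wells. Lung cancer cell lines were seeded in 1536-well plates, dosed by pin tool the next day, and fixed and stained after 5 days in one step with final 0.05% Triton X-100, 1% formaldehyde and 1 ug/ml Hoechst. Dosing was a single drug or a fixed anchor-drug dose plus five library-drug doses (not always all listed) in √10 steps, and values are medians of duplicate plates imaged at 4×.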

COR-L23 = tested on: COR-L23
Summary of the method: as §1

EKVX = tested on: EKVX
Summary of the method: as §1

HARA = tested on: HARA
Summary of the method: as §1

HCC-15 = tested on: HCC-15
Summary of the method: as §1

HOP-62 = tested on: HOP-62
Summary of the method: as §1

NCI-H1355 = tested on: NCI-H1355
Summary of the method: as §1

NCI-H1395 = tested on: NCI-H1395
Summary of the method: as §1

NCI-H1734 = tested on: NCI-H1734
Summary of the method: as §1

NCI-H1755 = tested on: NCI-H1755
Summary of the method: as §1

NCI-H1793 = tested on: NCI-H1793
Summary of the method: as §1

NCI-H1993 = tested on: NCI-H1993
Summary of the method: as §1

NCI-H2009 = tested on: NCI-H2009
Summary of the method: as §1

NCI-H2170 = tested on: NCI-H2170
Summary of the method: as §1

NCI-H2228 = tested on: NCI-H2228
Summary of the method: as §1

NCI-H2347 = tested on: NCI-H2347
Summary of the method: as §1

NCI-H358 = tested on: NCI-H358
Summary of the method: as §1

NCI-H647 = tested on: NCI-H647
Summary of the method: as §1

NCI-H838 = tested on: NCI-H838
Summary of the method: as §1

PC-14 = tested on: PC-14
Summary of the method: as §1

SK-MES-1 = tested on: SK-MES-1
Summary of the method: as §1

UMC-11 = tested on: UMC-11
Summary of the method: as §1

Q: How did the relative viability (COR-L 105; first compound 0.005 µM) turn out when CC1(C)CCC(c2ccc(Cl)cc2)=C(CN2CCN(c3ccc(C(=O)NS(=O)(=O)c4ccc(N[C@H](CCN5CCOCC5)CSc5ccccc5)c(S(=O)(=O)C(F)(F)F)c4)cc3)CC2)C1 [Navitoclax] + CS(=O)(=O)CCNCc1ccc(-c2ccc3ncnc(Nc4ccc(OCc5cccc(F)c5)c(Cl)c4)c3c2)o1 [Lapatinib] (partner 2 µM) was run?
A: 0.335

Q: What about the relative viability (COR-L 105; first compound 0.01581 µM) of the same compound?
A: 0.407

Q: What about the relative viability (COR-L 105; first compound 0.05 µM) of the same compound?
A: 0.307

Q: What about the relative viability (COR-L 105; first compound 0.1581 µM) of the same compound?
A: 0.282

Q: And the relative viability (COR-L 105; first compound 0.5 µM)?
A: 0.333

Q: And the relative viability (COR-L23; first compound 0.005 µM)?
A: 0.919

Q: What about the relative viability (COR-L23; first compound 0.01581 µM) of the same compound?
A: 1.25

Q: And the relative viability (COR-L23; first compound 0.05 µM)?
A: 1.33

Q: And the relative viability (COR-L23; first compound 0.1581 µM)?
A: 0.705

Q: And the relative viability (COR-L23; first compound 0.5 µM)?
A: 0.922

Q: And the relative viability (EKVX; first compound 0.005 µM)?
A: 0.233

Q: What about the relative viability (EKVX; first compound 0.01581 µM) of the same compound?
A: 0.21

Q: What about the relative viability (EKVX; first compound 0.05 µM) of the same compound?
A: 0.161

Q: And the relative viability (EKVX; first compound 0.1581 µM)?
A: 0.206

Q: And the relative viability (EKVX; first compound 0.5 µM)?
A: 0.206

Q: What about the relative viability (HARA; first compound 0.005 µM) of the same compound?
A: 0.686

Q: What about the relative viability (HARA; first compound 0.01581 µM) of the same compound?
A: 1

Q: What about the relative viability (HARA; first compound 0.05 µM) of the same compound?
A: 0.799

Q: And the relative viability (HARA; first compound 0.1581 µM)?
A: 0.728

Q: And the relative viability (HARA; first compound 0.5 µM)?
A: 1

Q: What about the relative viability (HCC-15; first compound 0.005 µM) of the same compound?
A: 0.814

Q: And the relative viability (HCC-15; first compound 0.01581 µM)?
A: 0.946

Q: And the relative viability (HCC-15; first compound 0.05 µM)?
A: 0.713

Q: What about the relative viability (HCC-15; first compound 0.1581 µM) of the same compound?
A: 0.813

Q: And the relative viability (HCC-15; first compound 0.5 µM)?
A: 0.836

Q: What about the relative viability (HOP-62; first compound 0.005 µM) of the same compound?
A: 0.924

Q: What about the relative viability (HOP-62; first compound 0.01581 µM) of the same compound?
A: 1.12

Q: What about the relative viability (HOP-62; first compound 0.05 µM) of the same compound?
A: 0.777

Q: What about the relative viability (HOP-62; first compound 0.1581 µM) of the same compound?
A: 0.947

Q: What about the relative viability (HOP-62; first compound 0.5 µM) of the same compound?
A: 0.972

Q: And the relative viability (NCI-H1355; first compound 0.005 µM)?
A: 0.988

Q: What about the relative viability (NCI-H1355; first compound 0.01581 µM) of the same compound?
A: 0.956

Q: What about the relative viability (NCI-H1355; first compound 0.05 µM) of the same compound?
A: 1.03

Q: What about the relative viability (NCI-H1355; first compound 0.1581 µM) of the same compound?
A: 1.05

Q: And the relative viability (NCI-H1355; first compound 0.5 µM)?
A: 1.02

Q: What about the relative viability (NCI-H1395; first compound 0.005 µM) of the same compound?
A: 0.831

Q: And the relative viability (NCI-H1395; first compound 0.01581 µM)?
A: 1.18

Q: What about the relative viability (NCI-H1395; first compound 0.05 µM) of the same compound?
A: 1.13

Q: And the relative viability (NCI-H1395; first compound 0.1581 µM)?
A: 1.17

Q: And the relative viability (NCI-H1395; first compound 0.5 µM)?
A: 1.06

Q: What about the relative viability (NCI-H1734; first compound 0.005 µM) of the same compound?
A: 1.09

Q: What about the relative viability (NCI-H1734; first compound 0.01581 µM) of the same compound?
A: 1.16

Q: What about the relative viability (NCI-H1734; first compound 0.1581 µM) of the same compound?
A: 0.973

Q: What about the relative viability (NCI-H1734; first compound 0.5 µM) of the same compound?
A: 1.09

Q: And the relative viability (NCI-H1755; first compound 0.005 µM)?
A: 1.04

Q: What about the relative viability (NCI-H1755; first compound 0.01581 µM) of the same compound?
A: 1.13

Q: And the relative viability (NCI-H1755; first compound 0.05 µM)?
A: 0.836

Q: And the relative viability (NCI-H1755; first compound 0.1581 µM)?
A: 0.984

Q: And the relative viability (NCI-H1755; first compound 0.5 µM)?
A: 1.02

Q: What about the relative viability (NCI-H1793; first compound 0.005 µM) of the same compound?
A: 0.601

Q: And the relative viability (NCI-H1793; first compound 0.01581 µM)?
A: 0.779

Q: And the relative viability (NCI-H1793; first compound 0.05 µM)?
A: 0.467

Q: And the relative viability (NCI-H1793; first compound 0.1581 µM)?
A: 0.843

Q: What about the relative viability (NCI-H1793; first compound 0.5 µM) of the same compound?
A: 0.557

Q: And the relative viability (NCI-H1993; first compound 0.005 µM)?
A: 0.849

Q: And the relative viability (NCI-H1993; first compound 0.01581 µM)?
A: 0.855

Q: And the relative viability (NCI-H1993; first compound 0.05 µM)?
A: 0.756

Q: What about the relative viability (NCI-H1993; first compound 0.1581 µM) of the same compound?
A: 0.795

Q: What about the relative viability (NCI-H1993; first compound 0.5 µM) of the same compound?
A: 0.883

Q: What about the relative viability (NCI-H2009; first compound 0.005 µM) of the same compound?
A: 0.938

Q: And the relative viability (NCI-H2009; first compound 0.01581 µM)?
A: 1.14

Q: And the relative viability (NCI-H2009; first compound 0.05 µM)?
A: 0.953

Q: What about the relative viability (NCI-H2009; first compound 0.1581 µM) of the same compound?
A: 0.9

Q: What about the relative viability (NCI-H2009; first compound 0.5 µM) of the same compound?
A: 0.998

Q: What about the relative viability (NCI-H2170; first compound 0.005 µM) of the same compound?
A: 0.275

Q: And the relative viability (NCI-H2170; first compound 0.01581 µM)?
A: 0.283

Q: And the relative viability (NCI-H2170; first compound 0.05 µM)?
A: 0.312

Q: What about the relative viability (NCI-H2170; first compound 0.1581 µM) of the same compound?
A: 0.285

Q: What about the relative viability (NCI-H2170; first compound 0.5 µM) of the same compound?
A: 0.26

Q: And the relative viability (NCI-H2228; first compound 0.005 µM)?
A: 1.09

Q: What about the relative viability (NCI-H2228; first compound 0.01581 µM) of the same compound?
A: 0.9

Q: And the relative viability (NCI-H2228; first compound 0.05 µM)?
A: 1.14

Q: What about the relative viability (NCI-H2228; first compound 0.1581 µM) of the same compound?
A: 0.893

Q: What about the relative viability (NCI-H2228; first compound 0.5 µM) of the same compound?
A: 1.03

Q: And the relative viability (NCI-H2347; first compound 0.005 µM)?
A: 0.957

Q: And the relative viability (NCI-H2347; first compound 0.01581 µM)?
A: 1.09

Q: What about the relative viability (NCI-H2347; first compound 0.05 µM) of the same compound?
A: 0.753

Q: And the relative viability (NCI-H2347; first compound 0.1581 µM)?
A: 0.765

Q: And the relative viability (NCI-H2347; first compound 0.5 µM)?
A: 0.923

Q: What about the relative viability (NCI-H358; first compound 0.005 µM) of the same compound?
A: 0.481

Q: And the relative viability (NCI-H358; first compound 0.01581 µM)?
A: 0.601

Q: And the relative viability (NCI-H358; first compound 0.05 µM)?
A: 0.397

Q: And the relative viability (NCI-H358; first compound 0.1581 µM)?
A: 0.482

Q: And the relative viability (NCI-H358; first compound 0.5 µM)?
A: 0.583

Q: What about the relative viability (NCI-H647; first compound 0.005 µM) of the same compound?
A: 0.888

Q: And the relative viability (NCI-H647; first compound 0.01581 µM)?
A: 1.05

Q: And the relative viability (NCI-H647; first compound 0.05 µM)?
A: 1.51

Q: And the relative viability (NCI-H647; first compound 0.1581 µM)?
A: 1.1

Q: And the relative viability (NCI-H647; first compound 0.5 µM)?
A: 0.918

Q: And the relative viability (NCI-H838; first compound 0.005 µM)?
A: 0.921

Q: And the relative viability (NCI-H838; first compound 0.01581 µM)?
A: 1.16

Q: What about the relative viability (NCI-H838; first compound 0.05 µM) of the same compound?
A: 1.29

Q: And the relative viability (NCI-H838; first compound 0.1581 µM)?
A: 0.97

Q: What about the relative viability (NCI-H838; first compound 0.5 µM) of the same compound?
A: 1.03

Q: What about the relative viability (PC-14; first compound 0.005 µM) of the same compound?
A: 0.343

Q: And the relative viability (PC-14; first compound 0.01581 µM)?
A: 0.343

Q: And the relative viability (PC-14; first compound 0.05 µM)?
A: 0.283

Q: What about the relative viability (PC-14; first compound 0.1581 µM) of the same compound?
A: 0.385

Q: And the relative viability (PC-14; first compound 0.5 µM)?
A: 0.338

Q: What about the relative viability (SK-MES-1; first compound 0.005 µM) of the same compound?
A: 0.462

Q: What about the relative viability (SK-MES-1; first compound 0.01581 µM) of the same compound?
A: 0.552

Q: And the relative viability (SK-MES-1; first compound 0.05 µM)?
A: 0.497

Q: And the relative viability (SK-MES-1; first compound 0.1581 µM)?
A: 0.458

Q: What about the relative viability (SK-MES-1; first compound 0.5 µM) of the same compound?
A: 0.523

Q: And the relative viability (UMC-11; first compound 0.005 µM)?
A: 0.862

Q: What about the relative viability (UMC-11; first compound 0.01581 µM) of the same compound?
A: 1.02

Q: And the relative viability (UMC-11; first compound 0.05 µM)?
A: 0.747

Q: And the relative viability (UMC-11; first compound 0.1581 µM)?
A: 0.858

Q: What about the relative viability (UMC-11; first compound 0.5 µM) of the same compound?
A: 0.481
